Experimental data published in ChEMBL document CHEMBL1201862, “PubChem BioAssay data set” (2004).
Active and inactive are the calls of the source.

How the values were obtained:
[1] = target: Mitogen-activated protein kinase 10 (Homo sapiens, UniProt P53779); experiment: Dose response biochemical screening assay for inhibitors of c-Jun N-Terminal Kinase 3 (JNK3). [Related pubchem assays: 746 ]
[2] = Luminescent dose response cell-based high throughput screening assay for inhibitors of the Janus kinase 2 mutant JAK2V617F. [Related pubchem assays: 1446 (Primary screen.), 1521 (Confirmation assay.), 1486 (Counter screen.)]; assay type: functional
[3] = Luminescence Cell-Based Dose Confirmation HTS to Identify Activators of 5'UTR Stem-Loop Driven Alpha-Synuclein mRNA Translation in H4 Neuroglioblastoma Cells. [Related pubchem assays: 1829 (Project Summary), 1814 (Primary HTS)]; assay type: functional
[4] = Luminescence Cell-Based Dose Response HTS to Identify Activators of Luciferase Translation or Activity in H4 […] Cells. [Related pubchem assays: 1829 (Project Summary), 1814 (Primary HTS)]; assay type: functional
H4 = experiment: Luminescence Cell-Based Dose Response HTS to Identify Activators of 5'UTR Stem-Loop Driven Prion Protein mRNA Translation in H4 Neuroglioblastoma Cells. [Related pubchem assays: 1829 (Project Summary), 1814 (Primary HTS)]; assay type: functional; details: Homo sapiens
Vero [5] = experiment: host cell cytotoxicity of antiviral hits, dose response, cytotoxicity control for West Nile virus antiviral project, secondary assay (AID 1650); assay type: functional; details: Chlorocebus sabaeus
Vero [6] = experiment: West Nile virus antiviral activity, cell-based, CPE readout (AID 1621); assay type: functional; details: Chlorocebus sabaeus
[7] = target: T1, Ubiquitin-conjugating enzyme E2 N (Homo sapiens, UniProt P61088); assay type: functional;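 note: Dose-response confirmation in a TR-FRET assay detecting UBC13-driven polyubiquitin chain formation, inhibition measured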
T1 sequence (P61088 whole entry): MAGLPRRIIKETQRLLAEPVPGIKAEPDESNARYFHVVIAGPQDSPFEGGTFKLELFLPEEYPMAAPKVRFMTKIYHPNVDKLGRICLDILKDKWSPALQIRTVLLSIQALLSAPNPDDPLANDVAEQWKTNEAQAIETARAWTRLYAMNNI

[8] = target: T2, Microphthalmia-associated transcription factor (Homo sapiens, UniProt O75030); experiment: TRPM1 promoter luciferase signal decrease, dose response, MITF inhibitor project, cell-based, SK-MEL-5, cherry-picked, set 3 (AID 493073); assay type: functional
T2 sequence (O75030 whole entry): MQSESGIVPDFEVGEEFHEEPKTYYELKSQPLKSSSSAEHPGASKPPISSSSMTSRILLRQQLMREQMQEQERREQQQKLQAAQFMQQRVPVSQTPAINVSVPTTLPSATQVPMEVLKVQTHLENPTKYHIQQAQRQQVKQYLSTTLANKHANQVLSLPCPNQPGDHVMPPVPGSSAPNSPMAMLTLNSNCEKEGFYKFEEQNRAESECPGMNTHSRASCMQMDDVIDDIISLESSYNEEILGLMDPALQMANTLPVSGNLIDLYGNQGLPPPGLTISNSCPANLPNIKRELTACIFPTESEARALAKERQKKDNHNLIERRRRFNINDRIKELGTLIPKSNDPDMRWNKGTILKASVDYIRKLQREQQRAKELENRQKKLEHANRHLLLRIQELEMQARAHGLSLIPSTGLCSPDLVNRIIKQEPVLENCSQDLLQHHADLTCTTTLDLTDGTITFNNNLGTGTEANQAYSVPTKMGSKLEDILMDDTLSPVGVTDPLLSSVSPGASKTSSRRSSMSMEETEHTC

[9] = P. falciparum late gametocyte killing, dose response, luminescence (AID 1117278); assay type: functional, cell-based;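 note: gametocytes exposed to compound for 24 hours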
[10] = Jurkat T cell cytotoxicity, dose response, cytotoxicity control for P. falciparum gametocyte viability project, luminescence (AID 1117277); assay type: functional, cell-based;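 note: potency reflects loss of cellular ATP meaning fewer viable cells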
Protein Tat = Protein Tat (Human immunodeficiency virus type 1 group M subtype B (isolate HXB2)(HIV-1), UniProt P04608); assay type: functional;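 note: tat binding to TAR RNA read out by fluorescence polarization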
Sequence of Protein Tat (P04608 whole entry): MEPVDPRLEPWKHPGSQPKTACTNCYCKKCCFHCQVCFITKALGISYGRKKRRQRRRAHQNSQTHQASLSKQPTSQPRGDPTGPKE

BJ [11] = experiment: cytotoxicity toward BJ-TERT fibroblasts, dose response, cell-based, RAS-independent, luminescence (AID 1933); assay type: functional, Homo sapiens; details: Homo sapiens, BJ
BJ [12] = experiment: cells; assay type: functional, cell-based, Homo sapiens; details: Homo sapiens, BJ
Large T antigen = Large T antigen (Simian virus 40, UniProt P03070); assay type: functional, Betapolyomavirus macacae;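 note: Confirmatory-stage PubChem screen for compounds that inhibit SV40 T antigen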
Sequence of Large T antigen (P03070 whole entry): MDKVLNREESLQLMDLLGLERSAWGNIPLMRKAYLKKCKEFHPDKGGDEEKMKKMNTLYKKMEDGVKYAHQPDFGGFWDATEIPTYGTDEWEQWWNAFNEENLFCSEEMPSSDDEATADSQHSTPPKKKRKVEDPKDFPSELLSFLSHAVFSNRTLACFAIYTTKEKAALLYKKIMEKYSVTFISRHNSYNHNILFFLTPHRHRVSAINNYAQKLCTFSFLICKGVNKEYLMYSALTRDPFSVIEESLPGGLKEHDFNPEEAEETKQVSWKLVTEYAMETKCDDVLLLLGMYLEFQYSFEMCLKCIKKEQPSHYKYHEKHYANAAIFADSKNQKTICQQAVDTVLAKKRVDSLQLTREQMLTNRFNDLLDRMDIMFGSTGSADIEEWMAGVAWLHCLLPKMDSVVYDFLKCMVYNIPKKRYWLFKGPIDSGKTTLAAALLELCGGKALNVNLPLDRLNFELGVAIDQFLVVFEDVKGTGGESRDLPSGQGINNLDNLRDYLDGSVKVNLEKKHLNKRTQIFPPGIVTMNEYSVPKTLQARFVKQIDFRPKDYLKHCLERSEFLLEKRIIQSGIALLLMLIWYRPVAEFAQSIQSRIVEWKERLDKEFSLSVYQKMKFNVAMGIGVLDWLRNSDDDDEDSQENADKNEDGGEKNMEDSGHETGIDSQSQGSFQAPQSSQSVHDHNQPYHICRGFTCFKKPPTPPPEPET

BJ [13] = experiment: cytotoxicity toward BJ-TERT-LT-ST fibroblasts, dose response, cell-based, RAS-independent, luminescence (AID 1935); assay type: functional, Homo sapiens; details: Homo sapiens, BJ;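 note: BJ fibroblasts immortalized with TERT plus LT and ST oncogenes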
[14] = cytotoxicity toward DRD oncogenic fibroblasts, dose response, cell-based, non-viral oncogenic, luminescence (AID 1934); assay type: functional; details: Homo sapiens
[15] = target: Neurotensin receptor type 1 (Homo sapiens, UniProt P30989); assay type: functional;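 note: Image-based confirmatory dose-response assay measuring agonist activity at NTR1; NTR1-expressing U2OS osteosarcoma cells imaged for beta-arrestin GFP spot formation; agonist potency where compounds increase beta-arrestin recruitment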
Sequence of Neurotensin receptor type 1 (P30989 whole entry): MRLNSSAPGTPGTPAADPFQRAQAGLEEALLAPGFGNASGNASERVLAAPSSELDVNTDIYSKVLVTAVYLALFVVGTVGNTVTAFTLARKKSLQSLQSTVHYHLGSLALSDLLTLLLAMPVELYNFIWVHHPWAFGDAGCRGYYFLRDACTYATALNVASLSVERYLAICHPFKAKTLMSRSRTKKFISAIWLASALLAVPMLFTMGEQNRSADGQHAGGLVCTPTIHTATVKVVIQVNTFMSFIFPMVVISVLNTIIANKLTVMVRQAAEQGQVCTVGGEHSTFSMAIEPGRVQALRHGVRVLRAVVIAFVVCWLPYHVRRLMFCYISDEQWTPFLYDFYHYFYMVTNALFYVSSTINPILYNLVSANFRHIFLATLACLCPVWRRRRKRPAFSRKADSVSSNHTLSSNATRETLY

[16] = THP-1 cell cytotoxicity, dose response, cytotoxicity control for Vif-APOBEC3G degradation inhibitor project, THP-1 cells (AID 1117359); assay type: functional; details: Human immunodeficiency virus 1, THP-1
[17] = Luminescence Cell-Based Dose Response to Identify Activators of 5'UTR Stem-Loop Driven Prion Protein mRNA Translation in H4-C Neuroglioblastoma Cells. [Related pubchem assays: 1829 (Project Summary), 1814 (Primary HTS)]; assay type: functional
[18] = Luminescence Cell-Based Dose Response to Identify Activators of Luciferase Translation or Activity in H4-C Neuroglioblastoma Cells. [Related pubchem assays: 1829 (Project Summary), 1814 (Primary HTS)]; assay type: functional
[19] = Luminescence Cell-Based Dose Confirmation to Identify Activators of 5'UTR Stem-Loop Driven Alpha-Synuclein mRNA Translation in H4 Neuroglioblastoma Cells. [Related pubchem assays: 1829 (Project Summary), 1814 (Primary HTS)]; assay type: functional
[20] = target: T3, RNA-binding protein pos-1 (Caenorhabditis elegans, UniProt G5EF15); experiment: inhibitors of POS-1/mex-3 RNA binding, dose response, biochemical, fluorescence polarization (AID 1964);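 note: purified POS-1 fused to maltose binding protein made in E. coli; potency of compounds blocking POS-1 binding to fluorescent RNA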
T3 sequence (G5EF15 whole entry): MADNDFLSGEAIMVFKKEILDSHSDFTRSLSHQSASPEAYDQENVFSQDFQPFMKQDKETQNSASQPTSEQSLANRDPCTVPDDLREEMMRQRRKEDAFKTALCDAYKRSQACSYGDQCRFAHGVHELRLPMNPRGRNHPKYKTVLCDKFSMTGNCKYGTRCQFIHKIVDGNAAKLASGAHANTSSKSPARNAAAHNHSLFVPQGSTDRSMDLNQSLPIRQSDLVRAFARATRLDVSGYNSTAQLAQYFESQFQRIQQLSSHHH

[21] = target: T4, Zinc finger protein mex-5 (Caenorhabditis elegans, UniProt Q9XUB2); experiment: MEX-5/TCR-2 RNA interaction inhibitors, dose response, biochemical, C. elegans, fluorescence polarization (AID 1960)
T4 sequence (Q9XUB2 whole entry): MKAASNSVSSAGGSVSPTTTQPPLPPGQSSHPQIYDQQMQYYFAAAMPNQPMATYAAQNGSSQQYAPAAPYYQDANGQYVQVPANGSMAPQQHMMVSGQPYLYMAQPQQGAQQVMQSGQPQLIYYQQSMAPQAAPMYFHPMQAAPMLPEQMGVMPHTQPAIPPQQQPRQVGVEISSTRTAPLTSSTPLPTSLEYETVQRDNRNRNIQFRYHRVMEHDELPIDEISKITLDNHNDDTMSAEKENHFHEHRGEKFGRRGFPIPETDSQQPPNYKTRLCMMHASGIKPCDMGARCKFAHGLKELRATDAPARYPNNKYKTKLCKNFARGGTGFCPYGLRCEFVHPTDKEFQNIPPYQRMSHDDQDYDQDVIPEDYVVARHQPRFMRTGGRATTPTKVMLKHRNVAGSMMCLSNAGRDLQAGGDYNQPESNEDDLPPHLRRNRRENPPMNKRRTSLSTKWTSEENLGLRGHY

Genome polyprotein = Genome polyprotein (dengue virus type 2, UniProt P29990); experiment: Dengue-2 NS5 methyltransferase inhibitors, primary screen, biochemical, confirmation dose response (AID 588689); assay type: functional
Sequence of Genome polyprotein (P29990 2492-3391 limits assumed): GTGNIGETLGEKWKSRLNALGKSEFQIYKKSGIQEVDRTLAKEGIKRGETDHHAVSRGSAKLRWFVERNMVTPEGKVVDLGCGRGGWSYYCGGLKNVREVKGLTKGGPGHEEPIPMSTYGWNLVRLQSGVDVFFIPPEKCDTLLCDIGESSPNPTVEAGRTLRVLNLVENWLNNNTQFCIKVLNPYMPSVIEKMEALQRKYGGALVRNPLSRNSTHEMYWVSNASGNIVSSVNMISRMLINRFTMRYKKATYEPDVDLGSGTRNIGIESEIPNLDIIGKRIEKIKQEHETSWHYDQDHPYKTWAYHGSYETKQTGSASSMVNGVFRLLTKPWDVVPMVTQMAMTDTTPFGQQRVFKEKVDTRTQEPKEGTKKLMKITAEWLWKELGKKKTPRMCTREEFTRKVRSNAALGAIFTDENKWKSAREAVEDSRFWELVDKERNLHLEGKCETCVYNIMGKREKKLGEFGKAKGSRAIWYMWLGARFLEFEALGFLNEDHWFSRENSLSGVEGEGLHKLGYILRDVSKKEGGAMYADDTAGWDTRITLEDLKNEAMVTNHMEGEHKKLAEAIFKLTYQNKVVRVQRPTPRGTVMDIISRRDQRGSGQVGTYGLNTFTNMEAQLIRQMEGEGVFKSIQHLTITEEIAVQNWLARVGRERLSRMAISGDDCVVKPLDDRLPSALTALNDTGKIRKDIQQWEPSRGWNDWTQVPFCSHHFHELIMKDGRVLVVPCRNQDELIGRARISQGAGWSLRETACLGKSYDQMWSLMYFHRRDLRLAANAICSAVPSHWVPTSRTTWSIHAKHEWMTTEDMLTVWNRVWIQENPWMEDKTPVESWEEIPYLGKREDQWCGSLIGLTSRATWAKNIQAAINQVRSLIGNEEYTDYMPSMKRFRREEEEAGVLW

Sequence of Mitogen-activated protein kinase 10 (P53779 whole entry): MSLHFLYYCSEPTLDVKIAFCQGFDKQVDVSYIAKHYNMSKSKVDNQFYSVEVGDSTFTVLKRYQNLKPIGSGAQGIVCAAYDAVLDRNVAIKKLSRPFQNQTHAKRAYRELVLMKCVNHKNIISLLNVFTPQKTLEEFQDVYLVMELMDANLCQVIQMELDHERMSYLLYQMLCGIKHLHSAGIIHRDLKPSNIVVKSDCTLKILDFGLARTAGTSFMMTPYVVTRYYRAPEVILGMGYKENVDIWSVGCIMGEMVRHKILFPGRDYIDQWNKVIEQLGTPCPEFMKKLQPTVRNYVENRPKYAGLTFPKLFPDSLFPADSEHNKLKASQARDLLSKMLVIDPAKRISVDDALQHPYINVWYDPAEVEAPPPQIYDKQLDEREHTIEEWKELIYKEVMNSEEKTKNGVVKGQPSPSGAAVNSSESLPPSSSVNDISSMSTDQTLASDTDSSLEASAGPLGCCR

O=C(Cn1cnc2ccccc2c1=O)Nc1ccc(-c2nnc3n2CCCCC3)cc1
IC50 [1]: 29.5 µM (not active)

CC(C)C1C(C#N)=C(N)Oc2[nH]nc(-c3ccc4ccccc4c3)c21 (stereo not given)
IC50 [2]: 2.41 µM (active)

CCCCN(CC)CCCNC(=O)c1cc2c(=O)n(CC)c3ccccc3c2s1
EC50 [3]: 73.6 µM (active) | EC50 [4]: 13.6 µM (active) | EC50 (H4): 11.7 µM (active) | CC50 (Vero [5]): 24.3 µM (active) | IC50 (Vero [6]): 22.7 µM (active) | IC50 [7]: > 20 µM (inactive) | AC50 [8]: 21.6 µM (active)

CC(=O)c1cccc(CN2CCN(C3CCCCC3)C(CCO)C2)c1 (stereo not given)
IC50 [9]: > 109 µM (inactive) | IC50 [10]: > 83.3 µM (inactive)

Cc1occc1-c1nnc(SCC(=O)N2CCN(c3ccccc3)CC2)n1C
IC50 (Protein Tat): > 100 µM (active)

Cc1ccc(C)c(N2CCN(C(=O)Cc3ccc(-n4c(=O)[nH]c5ccsc5c4=O)cc3)CC2)c1
IC50 [9]: > 109 µM (inactive) | IC50 [10]: > 83.2 µM (inactive)

O=C1NC(=O)N(c2ccccc2)C(=O)/C1=C\C=C\c1ccccc1
EC50 [3]: > 120 µM (not active) | EC50 [4]: 8.73 µM (active) | EC50 (BJ [11]): 2.79 µM (inconclusive) | EC50 (H4): > 120 µM (not active) | EC50 (BJ [12]): > 150 µM (inconclusive) | IC50 (Large T antigen): 95.6 µM (active) | EC50 (BJ [13]): 4.12 µM (inconclusive) | EC50 [14]: 4.66 µM (inconclusive) | EC50 [15]: 15.1 µM (active) | CC50 [16]: 13 µM (active)

O=C(Nc1ccc(CN2CCOCC2)cc1)c1ccc(Cl)cc1
EC50 [17]: 0.685 µM (active) | EC50 [3]: < 0.1 µM (active) | EC50 [4]: 4.65 µM (active) | EC50 (H4): 16.1 µM (active) | EC50 [18]: 0.951 µM (active) | EC50 [19]: > 12 µM (not active)

COc1cc(C(c2c(C(=O)O)[nH]c3ccccc23)c2c(C(=O)O)[nH]c3ccccc23)ccc1OCc1ccccc1
EC50 [20]: 47.7 µM (active) | EC50 [21]: 24.5 µM (active) | IC50 (Genome polyprotein): 16 µM (active) | AC50 (cells): 7.4 µM (active)

CCN1CCN(CCCNC(=O)C2CCCN(c3nc4c(C)cc(C)cc4s3)C2)CC1 (stereo not given)
IC50 (Vero [6]): 24.8 µM (active)
